Experimental data from patent publication US20100056623A1, “FUMAGILLOL DERIVATIVES OR METHOD FOR PREPARATION OF FUMAGILLOL DERIVATIVES, AND PHARMACEUTICAL COMPOSITIONS COMPRISING THE SAME” (CHONG KUN DANG PHARMACEUTICAL CORP., priority 2005, published 2010).
Where two headings read alike, the source gives them in different places.

Assays:
[1] = tested on: CPAE (calf pulmonary artery endothelial cell); assay: Inhibiting activity on cell proliferation, SRB analysis (CPAE); assay type: cell-based; details: for IC50: CPAE cells, 3 days with drug, SRB, read-out: IC50 (nM) CAPE; for Selectivity Index (L5178Y/CAPE): IC50 L5178Y / IC50 CPAE
Experimental: (§1) In order to compare the safety index (SI) of CPAE (calf pulmonary artery endothelial cell) with that of HUVEC (human umbilical vein endothelial cell), L5178Y lymphoma that was isolated from murine thymus was used. The safety index was defined as IC50 ratio of L5178Y against CPAE (IC50L5178Y/IC50CPAE). All cell lines, which had been kept in liquid nitrogen tank, were used after being thawed and subcultured 2˜3 times in T-flask. CPAE, HUVEC and L5178Y were cultured in MEM culture medium (20% FBS, 50˜100 μg/ml ECGS, 0.15% baking soda, 0.05 mg/ml gentamicin), M199 culture medium (20% FBS, 0.22% baking soda, 100 μg/ml heparin, 3 ng/ml bFGF, 0.05 mg/ml gentamicin) and RPMI 1640 culture medium (10% FBS, 0.2% baking soda, 0.05 mg/ml gentamicin), respectively, under the condition of 37° C. and 5% CO2.
(§2) The drug was prepared by being gradationally diluted to two or ten times by using PBS, 20 μl of the solution was added to each well of 96 well plate in triplicate. The cell, which is being incubated, was treated with trypsin to give cell suspension. The number of cell thereafter was counted. And 180 μl of the solution was inoculated to each well and cultured.
(§3) The cell was cultured with drugs for 3 days and then 50 μl of 50% TCA was added thereto (final concentration 10%). Subsequently the cell was fixed by being left alone at 4° C. for 1 hour. The well was washed 4 times by distilled water and then dried. After that 100 μl of SRB (Sulforhodamine B, Sigma Chemical Co.) solution (0.4% w/v in 1% acetic acid) was added thereto and then it was left alone at ordinary temperature for 30 minutes. Thereafter the well was washed 4 times by 1% acetic acid and dried. And then after adding 200 μl of 10 mM tris buffer, the absorbance at 570 nm was measured by automatic microplate reader (Model: Elx 808, Bio-Tek Instrument, INC). The viability was calculated from the ratio of the absorbance of the control to which drugs were not added and the well to which drugs were added.

L5178Y lymphoma = assay: Inhibiting activity on cell proliferation, MTT analysis (L5178Y); assay type: cell-based, murine; details: L5178Y lymphoma cells, 3 days with drug
Experimental: as §1, §2
The tumor cell was cultured with drugs for 3 days and then 50 μl of MTT (3-(4,5-dimethylthiazole-2-yl)-2,5-diphenyl tetrazolium bromide, Sigma Chemical Co.) solution (2.5 mg/ml in PBS) was added thereto. And it was further cultured for 4 hours at 37° C. Culture medium was removed carefully. And after dissolving formazan crystal by adding 150 μl of DMSO, the absorbance at 570 nm was determined.

[2] = tested on: HUVEC (human umbilical vein endothelial cell); assay: Inhibiting activity on cell proliferation, SRB analysis (HUVEC); assay type: cell-based; details: Homo sapiens, 72 h, HUVEC cells, 3 days with drug
Experimental: as §1, §2, §3

[3] = Chemical stability test (HPLC purity); details: for change of purity (in words) / chemical stability compared to known compounds / 1 month Other peaks (%) / 1 month Parent peak (%): 1 month at 40±2° C.; for change of purity (in words) / chemical stability compared to known compounds / 1 month Other peaks (%) / 1 month Parent peak (%) / change of purity (%): 75±5% relative humidity; for 1 month Other peaks (%) / 1 month Parent peak (%) / Initial Other peaks (%) / Initial Parent peak (%): HPLC; for 1 month Other peaks (%) / 1 month Parent peak (%): air-tight vessel; for change of purity (%): initial vs 1 month at 40±2° C.
Experimental: Each compound of the present invention was kept in an air-tight vessel for 1 month at 40±2° C. and 75±5% of relative humidity. Thereafter the HPLC purity test was executed.
25 mL of the solution was precisely taken, and poured into 100 mL volumetric flask. Acetonitrile/20 mM ammonium acetate aqueous solution (50:50) was added thereto to be the total volume of 100 ml. The solution was filtrated, and the filtrate was used as a test liquid.
(2) Operational Condition of Instrument. • Column: Kromasil®C18 (UG 100 Å, 5 μm, 4.6 mm Φ×250 mm) • Column temperature: 30° C. • Mobil phase: 20 mM ammonium acetate (pH 4.2) buffer:acetonitrile (55:45) • Injection volume: 20 μL • Flow rate: 1.2 mL/min • Detector: UV light-absorption Spectrophotometer (detection wavelength: 306 nm)

Solubility test = assay type: physicochemical; details: ordinary temperature
Experimental: To a constant amount (400 mg) of each compounds of present invention, a constant amount of demineralized water, methanol and ethanol were added separately, and the solution was stirred at ordinary temperature.

[4] = Bos taurus, Endothelial cell, 72 h

Row | Compound | IC50 [1, 4] [nM] | Selectivity Index (L5178Y/CAPE) [1] | IC50 (L5178Y lymphoma; Mus musculus, 72 h) [nM] | IC50 [2] [nM] | effect compared to CKD-731 against CPAE ([1]; relative to CKD-731) | change of purity (in words) [3] | chemical stability compared to known compounds [3] | 1 month Other peaks (%) [3] [%] | 1 month Parent peak (%) [3] [%] | Initial Other peaks (%) [3] [%] | Initial Parent peak (%) [3] [%] | change of purity (%) [3] [%] | The amount of solvent to dissolve 1 g of the compounds (ml), demineralized water (Solubility test) [mL] | The amount of solvent to dissolve 1 g of the compounds (ml), ethanol (Solubility test) [mL] | The amount of solvent to dissolve 1 g of the compounds (ml), methanol (Solubility test) [mL] | IC50 [1] [nM] | IC50 (L5178Y lymphoma) [nM]
1 | COc1cc(/C=C/C(=O)O[C@@H]2CC[C@]3(CO3)[C@@H]([C@@]3(C)O[C@@H]3CC=C(C)C)[C@@H]2OC)ccc1Oc1ccc(CO)cc1 [Example 10, O-(4-(4-hydroxymethylphenoxy)-3-methoxycinnamoyl)fumagillol] | 0.711 | 6.00 × 10^4 | 42500 |  |  |  |  |  |  |  |  |  |  |  |  |  | 
2 | COc1ccc(/C=C/C(=O)O[C@@H]2CC[C@]3(CO3)[C@@H]([C@@]3(C)O[C@@H]3CC=C(C)C)[C@@H]2OC)cc1Oc1ccc(CO)cc1 [Example 11, O-(3-(4-hydroxymethylphenoxy)-4-methoxycinnamoyl)fumagillol] | 0.655 | 1.15 × 10^5 | 75000 | 0.0036 |  |  |  |  |  |  |  |  |  |  |  |  | 
3 | CO[C@@H]1[C@H](OC(=O)/C=C/c2ccc(OCCCO)cc2)CC[C@]2(CO2)[C@H]1[C@@]1(C)O[C@@H]1CC=C(C)C [Example 19, O-(4-(3-hydroxypropoxy)cinnamoyl)fumagillol] | 0.017 | 1.46 × 10^6 | 24900 |  |  |  |  |  |  |  |  |  |  |  |  |  | 
4 | CO[C@@H]1[C@H](OC(=O)/C=C/c2ccc(OCCCCCO)c([N+](=O)[O-])c2)CC[C@]2(CO2)[C@H]1[C@@]1(C)O[C@@H]1CC=C(C)C [Example 24, O-(3-nitro-4-(5-hydroxypentoxy)cinnamoyl)fumagillol] | 0.0946 | 1.10 × 10^5 | 10400 | 0.0042 |  |  |  |  |  |  |  |  |  |  |  |  | 
5 | COc1cc(/C=C/C(=O)O[C@@H]2CC[C@]3(CO3)[C@@H]([C@@]3(C)O[C@@H]3CC=C(C)C)[C@@H]2OC)cc(OC)c1Oc1ccc(CO)cc1 [Example 9, O-(3,5-dimethoxy-4-(4-hydroxymethylphenoxy)cinnamoyl)fumagillol] | 0.811 | 7.54 × 10^4 | 61200 | 0.00361 |  |  |  |  |  |  |  |  |  |  |  |  | 
6 | CO[C@@H]1[C@H](OC(=O)/C=C/c2ccc(OCCO)cc2)CC[C@]2(CO2)[C@H]1[C@@]1(C)O[C@@H]1CC=C(C)C [Example 1, O-(4-(2-hydroxyethoxy)cinnamoyl)fumagillol] | 0.0025 | 6.22 × 10^6 | 15500 |  | equivalent or not smaller than twice effect of CKD-731 | hardly showed a change of purity | more excellent chemical stability than TNP-470, CKD-732 and CKD-731 | 0.6 | 99.4 | 0.6 | 99.4 | 0 | 135 | 55 | 34 |  | 
7 | COc1ccc(/C=C/C(=O)O[C@@H]2CC[C@]3(CO3)[C@@H]([C@@]3(C)O[C@@H]3CC=C(C)C)[C@@H]2OC)cc1OCCOCCO [Example 15, O-(3-(2-hydroxyethoxyethoxy)-4-methoxycinnamoyl)fumagillol] | 0.4 | 1.05 × 10^5 | 41900 |  |  |  |  |  |  |  |  |  |  |  |  |  | 
8 | CO[C@@H]1[C@H](OC(=O)/C=C/c2ccc(OCCCO)c(C#N)c2)CC[C@]2(CO2)[C@H]1[C@@]1(C)O[C@@H]1CC=C(C)C [Example 20, O-(3-cyano-4-(3-hydroxypropoxy)cinnamoyl)fumagillol] | 0.046 | 4.45 × 10^5 | 20500 |  |  |  |  |  |  |  |  |  |  |  |  |  | 
9 | CO[C@@H]1[C@H](OC(=O)/C=C/c2ccc(OCCOCCOCCO)cc2)CC[C@]2(CO2)[C@H]1[C@@]1(C)O[C@@H]1CC=C(C)C [Example 27, O-(4-(2-hydroxyethoxyethoxyethoxy)cinnamoyl)fumagillol] | 0.089 | 1.18 × 10^5 | 10500 |  |  | hardly showed a change of purity | more excellent chemical stability than TNP-470, CKD-732 and CKD-731 | 1.6 | 98.4 | 1.6 | 98.4 | 0 | 120 | 50 | 30 |  | 
10 | COc1cc(/C=C/C(=O)O[C@@H]2CC[C@]3(CO3)[C@@H]([C@@]3(C)O[C@@H]3CC=C(C)C)[C@@H]2OC)cc(OC)c1OCCOCCO [Example 13, O-(3,5-dimethoxy-4-(2-hydroxyethoxyethoxy)cinnamoyl)fumagillol] | 0.17 | 2.03 × 10^5 | 34600 |  |  |  |  |  |  |  |  |  |  |  |  |  | 
11 | COc1cc(C=CC(=O)OC2CCC3(CO3)C(C3(C)OC3CC=C(C)C)C2OC)cc(OC)c1OC (stereo not drawn) [CKD-731, O-(3,4,5-trimethoxycinnamoyl)fumagillol, reference compound] |  |  |  |  |  |  |  | 2.9 | 97.1 | 1.1 | 98.9 | 1.8 | 1567 | 372 | 350 | 0.0044 | 58200
12 | COc1cc(/C=C/C(=O)O[C@@H]2CC[C@]3(CO3)[C@@H]([C@@]3(C)O[C@@H]3CC=C(C)C)[C@@H]2OC)ccc1OCCOCCO [Example 14, O-(4-(2-hydroxyethoxyethoxy)-3-methoxycinnamoyl)fumagillol] | 0.26 | 1.93 × 10^5 | 50100 |  |  |  |  |  |  |  |  |  |  |  |  |  | 
13 | CO[C@@H]1[C@H](OC(=O)/C=C/c2ccc(OCCOCCO)cc2)CC[C@]2(CO2)[C@H]1[C@@]1(C)O[C@@H]1CC=C(C)C [Example 12, O-(4-(2-hydroxyethoxyethoxy)cinnamoyl)fumagillol] | 0.019 | 1.08 × 10^6 | 20500 |  |  | hardly showed a change of purity | more excellent chemical stability than TNP-470, CKD-732 and CKD-731 | 0.6 | 99.4 | 0.5 | 99.5 | 0.1 | 126 | 51 | 35 |  | 
14 | CO[C@@H]1[C@H](OC(=O)/C=C/c2ccc(OCCCCO)cc2)CC[C@]2(CO2)[C@H]1[C@@]1(C)O[C@@H]1CC=C(C)C [Example 21, O-(4-(4-hydroxybutoxy)cinnamoyl)fumagillol] | 0.029 | 8.90 × 10^5 | 25800 |  |  | hardly showed a change of purity | more excellent chemical stability than TNP-470, CKD-732 and CKD-731 | 1.1 | 98.9 | 1.0 | 99.0 | 0.1 | 150 | 97 | 70 |  | 
15 | CO[C@@H]1[C@H](OC(=O)/C=C/c2ccc(OCCCCO)c(C)c2)CC[C@]2(CO2)[C@H]1[C@@]1(C)O[C@@H]1CC=C(C)C [Example 22, O-(3-methyl-4-(4-hydroxybutoxy)cinnamoyl)fumagillol] | 0.048 | 6.76 × 10^5 | 32500 |  |  |  |  |  |  |  |  |  |  |  |  |  | 
